Results on 21 molecules are retold here after PubChem BioAssay AID328 (DTP/NCI, 2004).

Several values for one entry are separate records, joined by “and”; a condition that tells them apart may be missing. Identical values can stand only once. Toxic doses and inconclusive results are not listed.

This experiment relates to BDF1 mice, P388 leukemia ip, median survival T/C. Description: NCI In Vivo Anticancer Drug Screen. Data for tumor model P388 Leukemia (intraperitoneal) in B6D2F1 (BDF1) mice. Conditions: endpoint: median survival time, higher = longer survival. The method in brief:
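Mice carrying the transplantable tumour receive compound or vehicle. Survival is followed in each arm, and the treated measure is divided by the vehicle measure.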

Setting [1] is: dose: 100.0 mg/kg/injection, schedule: Q04DX003 (ip), vehicle: Klucel (hydroxypropylcellulose) (HPC).
Setting [2] is: dose: 100.0 mg/kg/injection, schedule: Q04DX003 (ip), vehicle: saline with Tween-80.
[3] abbreviates: dose: 200.0 mg/kg/injection, schedule: Q04DX003 (ip), vehicle: saline with Tween-80.
[4] abbreviates: dose: 50.0 mg/kg/injection, schedule: Q01DX009 (ip), vehicle: saline with Tween-80.
Setting [5] is: dose: 100.0 mg/kg/injection, schedule: Q01DX009 (ip), vehicle: saline with Tween-80.
Where [6] appears, read: dose: 200.0 mg/kg/injection, schedule: Q01DX009 (ip), vehicle: saline with Tween-80.
Where [7] appears, read: dose: 50.0 mg/kg/injection, schedule: Q01DX009 (ip), vehicle: Klucel (hydroxypropylcellulose) (HPC).
Setting [8] is: dose: 100.0 mg/kg/injection, schedule: Q01DX009 (ip), vehicle: Klucel (hydroxypropylcellulose) (HPC).
The mark [9] stands for this setting: dose: 100.0 mg/kg/injection, schedule: Q04DX003 (ip), vehicle: saline sonified.
[10] abbreviates: dose: 200.0 mg/kg/injection, schedule: Q04DX003 (ip), vehicle: saline sonified.

Turning to `c1ccc2c(c1)CCc1cc3c(nc1-2)-c1ccccc1CC3`, the T/C under setting [1] was 112 % of control and the T/C (dose: 400.0 mg/kg/injection, schedule: Q04DX003 (ip), vehicle: Klucel (hydroxypropylcellulose) (HPC)) was 112 % of control.
Regarding `Cc1ccc(S(=O)(=O)N2CCC(C(=O)O)(c3ccccc3)CC2)cc1`, the T/C under setting [2] is 100 % of control; the T/C under setting [3] is 95 % of control; the T/C (dose: 400.0 mg/kg/injection, schedule: Q04DX003 (ip), vehicle: saline with Tween-80) was 95 % of control.
Regarding `OC/C=[CH]\[Sn]([c]1ccccc1)([c]1ccccc1)[c]1ccccc1`, the T/C is, setting by setting: under setting [4], 89 % of control; under setting [5], 115 % of control; under setting [6], 106 % of control.
On to `Cc1cccc(NC2=C(C#N)C(=O)NC3(CCCC3)S2)c1`, for which the T/C is 119 % of control under setting [4], 103 % of control under setting [5] and 100 % of control under setting [6].
As to `NC/C(=N\O)c1ccc(C(F)(F)F)cc1`, the T/C runs as follows: (dose: 50.0 mg/kg/injection, schedule: Q01DX001 (ip), vehicle: Klucel (hydroxypropylcellulose) (HPC)) 105 % of control; (dose: 100.0 mg/kg/injection, schedule: Q01DX001 (ip), vehicle: Klucel (hydroxypropylcellulose) (HPC)) 114 % of control; (dose: 200.0 mg/kg/injection, schedule: Q01DX001 (ip), vehicle: Klucel (hydroxypropylcellulose) (HPC)) 105 % of control.
As for `C=C1CC(OC(C)=O)C2C(OC(=O)C2(C)OC(=O)/C(C)=C\C)C2C(C)=CC(=O)C12` (stereo not drawn), the T/C is 100 % of control (dose: 4.0 mg/kg/injection, schedule: Q01DX009 (ip), vehicle: Klucel (hydroxypropylcellulose) (HPC)) and 109 % of control (dose: 8.0 mg/kg/injection, schedule: Q01DX009 (ip), vehicle: Klucel (hydroxypropylcellulose) (HPC)).
Consider `O=C(CC(c1ccccc1)C(C(=O)O)c1ccccc1)c1ccccc1` (stereo not drawn), for which the T/C is, setting by setting: under setting [7], 101 % of control; under setting [8], 92 % of control.
Turning to `Cc1ccc(N(OC(=O)c2ccccc2)C(C)(C)C)cc1`, the T/C was 93 % of control (dose: 25.0 mg/kg/injection, schedule: Q04DX002 (ip), vehicle: saline with Tween-80); 109 % of control (dose: 50.0 mg/kg/injection, schedule: Q04DX002 (ip), vehicle: saline with Tween-80); 111 % of control and 113 % of control (dose: 100.0 mg/kg/injection, schedule: Q04DX002 (ip), vehicle: saline with Tween-80).
On to `CCCCCCNC(=S)/N=C(\N)n1nc(C)cc1C`, for which the T/C by setting is: under setting [4], 109 % of control; under setting [5], 99 % of control; under setting [6], 112 % of control.
On to `CNC=O`, for which the T/C (dose: 7.5 mg/kg/injection, schedule: Q01DX010 (ip), vehicle: saline) is 100 % of control; the T/C (dose: 15.0 mg/kg/injection, schedule: Q01DX010 (ip), vehicle: saline) is 104 % of control and 109 % of control; the T/C (dose: 30.0 mg/kg/injection, schedule: Q01DX010 (ip), vehicle: saline) is 104 % of control and 118 % of control; the T/C (dose: 60.0 mg/kg/injection, schedule: Q01DX010 (ip), vehicle: saline) is 109 % of control and 113 % of control; the T/C (dose: 300.0 mg/kg/injection, schedule: Q01DX010 (ip), vehicle: saline) is 154 % of control; the T/C (dose: 455.0 mg/kg/injection, schedule: Q01DX010 (ip), vehicle: saline) was 154 % of control. Also, the T/C (dose: 680.0 mg/kg/injection, schedule: Q01DX010 (ip), vehicle: saline) was 91 % of control.
Take `O=C(O)/C=C/C(=O)Nc1cccc(Oc2ccc([N+](=O)[O-])cc2[N+](=O)[O-])c1`: the T/C reads like this: (dose: 100.0 mg/kg/injection, schedule: Q01DX009 (ip), vehicle: saline) 118 % of control; (dose: 100.0 mg/kg/injection, schedule: Q04DX003 (ip), vehicle: other) 100 % of control; (dose: 200.0 mg/kg/injection, schedule: Q01DX009 (ip), vehicle: saline) 122 % of control; (dose: 200.0 mg/kg/injection, schedule: Q04DX003 (ip), vehicle: other) 100 % of control; (dose: 400.0 mg/kg/injection, schedule: Q04DX003 (ip), vehicle: other) 91 % of control.
Consider `O=C(Nc1ccccc1F)Nc1cc(Cl)ccc1Cl`, for which the T/C is 90 % of control (dose: 50.0 mg/kg/injection, schedule: Q04DX003 (ip), vehicle: saline sonified); 86 % of control under setting [9]; 90 % of control under setting [10].
Take `Cc1ccc(N2C(=O)CC(Sc3ccccc3N)C2=O)cc1` (stereo not drawn): the T/C was 105 % of control under setting [7]; 100 % of control (dose: 100.0 mg/kg/injection, schedule: Q01DX001 (ip), vehicle: saline); 105 % of control under setting [8]; 95 % of control under setting [1]; 90 % of control (dose: 200.0 mg/kg/injection, schedule: Q01DX001 (ip), vehicle: saline); 105 % of control (dose: 200.0 mg/kg/injection, schedule: Q01DX009 (ip), vehicle: Klucel (hydroxypropylcellulose) (HPC)). Further, the T/C (dose: 200.0 mg/kg/injection, schedule: Q04DX003 (ip), vehicle: Klucel (hydroxypropylcellulose) (HPC)) is 87 % of control and the T/C (dose: 400.0 mg/kg/injection, schedule: Q01DX001 (ip), vehicle: saline) was 90 % of control.
Turning to `CC(CCc1cccc2ccccc12)(C(=O)O)C(=O)O`, the T/C is, setting by setting: under setting [9], 100 % of control; under setting [10], 91 % of control.
With `COc1cc2c(c3c1c(=O)c1cc(OC(C)=O)ccc1n3C)C=CC(C)(C)O2`, the T/C reads like this: (dose: 10.0 mg/kg/injection, schedule: Q01DX009 (ip), vehicle: Klucel (hydroxypropylcellulose) (HPC)) 100 % of control; (dose: 20.0 mg/kg/injection, schedule: Q01DX009 (ip), vehicle: Klucel (hydroxypropylcellulose) (HPC)) 98 % of control; (dose: 40.0 mg/kg/injection, schedule: Q01DX009 (ip), vehicle: Klucel (hydroxypropylcellulose) (HPC)) 106 % of control.
Regarding `CC1CCCC(C)(CO)O1` (stereo not drawn), the T/C runs as follows: (dose: 100.0 mg/kg/injection, schedule: Q04DX003 (ip), vehicle: saline) 115 % of control; (dose: 200.0 mg/kg/injection, schedule: Q04DX003 (ip), vehicle: saline) 115 % of control; (dose: 400.0 mg/kg/injection, schedule: Q04DX003 (ip), vehicle: saline) 105 % of control.
For the molecule `O=C(O)C1C(C(=O)O)C2(Cl)C(Cl)=C(Cl)C1(Cl)C2(Cl)Cl.[Co]` (stereo not drawn), the T/C was 100 % of control (dose: 25.0 mg/kg/injection, schedule: Q01DX009 (ip), vehicle: Klucel (hydroxypropylcellulose) (HPC)) and 100 % of control under setting [7].
Regarding `[Se]c1ccnc([Se])n1`, the T/C (dose: 50.0 mg/kg/injection, schedule: Q04DX003 (ip), vehicle: saline with Tween-80) is 100 % of control; the T/C under setting [2] is 90 % of control; the T/C under setting [3] was 100 % of control.
`Cc1noc(N)c1N`: the T/C is 110 % of control (dose: 100.0 mg/kg/injection, schedule: Q01DX009 (ip), vehicle: water); 109 % of control (dose: 100.0 mg/kg/injection, schedule: Q04DX003 (ip), vehicle: water); 110 % of control and 117 % of control (dose: 200.0 mg/kg/injection, schedule: Q01DX009 (ip), vehicle: water); 100 % of control (dose: 200.0 mg/kg/injection, schedule: Q04DX003 (ip), vehicle: water); 106 % of control (dose: 400.0 mg/kg/injection, schedule: Q01DX009 (ip), vehicle: water); 100 % of control (dose: 400.0 mg/kg/injection, schedule: Q04DX003 (ip), vehicle: water). In addition, under “dose: 600.0 mg/kg/injection, schedule: Q01DX009 (ip), vehicle: water”, the T/C is 122 % of control.
Turning to `CCOC(=O)C1(c2ccccc2)C(=O)Oc2ccccc21` (stereo not drawn), the T/C (dose: 25.0 mg/kg/injection, schedule: Q01DX009 (ip), vehicle: saline with Tween-80) was 100 % of control; the T/C under setting [4] is 98 % of control; the T/C under setting [5] is 108 % of control; the T/C under setting [6] was 122 % of control.
Regarding `O=C(O)/C=C/c1c(Cl)cccc1Cl`, the T/C was 106 % of control under setting [4] and 113 % of control under setting [5].
